The source of these data is publication PMC2195641 (The Journal of Experimental Medicine, 1999).

Where a SMILES comes first, the peptide text is derived from it.

The target in this experiment is T1, purified I-E^k molecules (Mus musculus, UniProt P04224+P04231).
T1 sequence (P04224 26-255): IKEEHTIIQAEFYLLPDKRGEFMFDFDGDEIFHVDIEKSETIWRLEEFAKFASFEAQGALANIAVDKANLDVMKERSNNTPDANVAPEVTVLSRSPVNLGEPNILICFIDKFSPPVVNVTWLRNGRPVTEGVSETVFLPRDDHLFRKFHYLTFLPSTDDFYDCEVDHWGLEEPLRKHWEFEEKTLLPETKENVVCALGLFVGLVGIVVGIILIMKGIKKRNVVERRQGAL
T1 sequence (P04231 1-232): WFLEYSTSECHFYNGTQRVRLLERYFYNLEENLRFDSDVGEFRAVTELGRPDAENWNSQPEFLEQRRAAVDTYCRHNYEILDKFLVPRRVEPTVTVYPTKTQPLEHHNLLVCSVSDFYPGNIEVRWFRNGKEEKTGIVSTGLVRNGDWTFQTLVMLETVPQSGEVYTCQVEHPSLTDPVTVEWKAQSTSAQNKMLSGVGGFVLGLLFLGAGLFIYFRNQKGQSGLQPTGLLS
Put plainly: I-E^k binding assay.

In general, IC50 refers to the concentration that inhibits the measured activity by half. A low value points to higher potency. Compound `CC[C@H](C)[C@H](NC(=O)[C@H](C)NC(=O)[C@H](C)NC(=O)[C@H](C)NC(=O)[C@H](C)NC(=O)[C@H](C)NC(=O)[C@H](C)NC(=O)[C@H](C)N)C(=O)N[C@@H](C)C(=O)N[C@@H](Cc1ccc(O)cc1)C(=O)N[C@@H](C)C(=O)N[C@@H](CCCCN)C(=O)N[C@@H](CCC(N)=O)C(=O)N[C@@H](C)C(=O)N[C@H](C(=O)N[C@@H](CCCCN)C(=O)O)[C@@H](C)O` [pMCC-A] (H-AAAAAAAIAYAKQATK-OH) gave an IC50 of 36 nM. In other words, the double-digit nanomolar range.
